Each structure is given as a SMILES string. Values joined by “and” are separate entries in the source; they are usually repeats but may differ in a detail not shown here. Identical values can stand only once. Toxic doses and inconclusive results are not listed.

The record followed here is PubChem BioAssay AID330 (DTP/NCI, 2004).

The test system of this test is P388 leukemia ip, CD2F1 mice, survival T/C. In words: NCI In Vivo Anticancer Drug Screen. Data for tumor model P388 Leukemia (intraperitoneal) in CD2F1 (CDF1) mice. The note with it: endpoint: median survival time, higher = longer survival. In a few lines: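 Mice carrying the transplanted tumor received test compound or vehicle. Survival was recorded in each group, and the value is the treated-group measurement divided by that of the vehicle-treated control group.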

[1] abbreviates: dose: 50.0 mg/kg/injection, schedule: Q01DX009 (ip), vehicle: saline.

For `CCS(=O)O`, the T/C is 106 % of control (dose: 60.0 mg/kg/injection, schedule: Q01DX005 (ip), vehicle: saline); 112 % of control (dose: 120.0 mg/kg/injection, schedule: Q01DX005 (ip), vehicle: saline); 112 % of control (dose: 240.0 mg/kg/injection, schedule: Q01DX005 (ip), vehicle: saline).
Turning to `CCOP(=O)(N1CC1(C)C)N1CC1(C)C` (stereo not drawn), the T/C is 109 % of control (dose: 5.0 mg/kg/injection, schedule: Q01DX009 (ip), vehicle: saline); 159 % of control (dose: 20.0 mg/kg/injection, schedule: Q01DX009 (ip), vehicle: saline); 194 % of control (dose: 30.0 mg/kg/injection, schedule: Q01DX009 (ip), vehicle: saline); 252 % of control under setting [1].
In the case of `CC(=O)NC1=C(C#N)CCCC1`, the T/C (dose: 100.0 mg/kg/injection, schedule: Q04DX003 (ip), vehicle: saline) is 101 % of control; the T/C (dose: 200.0 mg/kg/injection, schedule: Q04DX003 (ip), vehicle: saline) was 104 % of control; the T/C (dose: 400.0 mg/kg/injection, schedule: Q04DX003 (ip), vehicle: saline) is 100 % of control.
Consider `O=C(O)CCCC#C/C=C/CCCC/C=C(Br)\C=C/Br`, for which the T/C (dose: 62.5 mg/kg/injection, schedule: Q01DX009 (ip), vehicle: olive oil, sesame oil, peanut oil) is 106 % of control; the T/C (dose: 125.0 mg/kg/injection, schedule: Q01DX009 (ip), vehicle: olive oil, sesame oil, peanut oil) is 96 % of control; the T/C (dose: 250.0 mg/kg/injection, schedule: Q01DX009 (ip), vehicle: olive oil, sesame oil, peanut oil) is 100 % of control.
`C[C@@H]1CC2=CC(=O)CC[C@]2(C)[C@H]2CC[C@]3(C)[C@@H](O)CC[C@H]3[C@H]12`: the T/C is, setting by setting: (dose: 100.0 mg/kg/injection, schedule: Q01DX009 (ip), vehicle: saline with Tween-80) 90 % of control; (dose: 200.0 mg/kg/injection, schedule: Q01DX009 (ip), vehicle: saline with Tween-80) 90 % of control.
As to `CC(C)(NC(=O)c1cc(Cl)c2ccccc2c1O)C(=O)O`, the T/C is, setting by setting: (dose: 50.0 mg/kg/injection, schedule: Q01DX009 (ip), vehicle: saline + alcohol) 97 % of control; (dose: 100.0 mg/kg/injection, schedule: Q01DX009 (ip), vehicle: saline + alcohol) 94 % of control; (dose: 200.0 mg/kg/injection, schedule: Q01DX009 (ip), vehicle: saline + alcohol) 103 % of control.
As to `c1ccc(C(Nc2nncs2)Nc2nncs2)cc1`, the T/C is 99 % of control (dose: 30.0 mg/kg/injection, schedule: Q01DX005 (ip), vehicle: saline with Tween-80); 100 % of control and 112 % of control (dose: 60.0 mg/kg/injection, schedule: Q01DX005 (ip), vehicle: saline with Tween-80); 117 % of control (dose: 120.0 mg/kg/injection, schedule: Q01DX005 (ip), vehicle: saline with Tween-80); 157 % of control and 164 % of control (dose: 240.0 mg/kg/injection, schedule: Q01DX005 (ip), vehicle: saline with Tween-80).
Consider `COc1ccc(C2c3cc4c(cc3OC(C)(OC)C2C)OCO4)c(OC)c1OC` (stereo not drawn), for which the T/C is, setting by setting: (dose: 100.0 mg/kg/injection, schedule: Q01DX001 (ip), vehicle: saline with Tween-80) 94 % of control; (dose: 200.0 mg/kg/injection, schedule: Q01DX001 (ip), vehicle: saline with Tween-80) 94 % of control.
For the compound `CN(C)c1ncnc2c1ccn2COCCO`, the T/C by setting is: (dose: 50.0 mg/kg/injection, schedule: Q01DX005 (ip), vehicle: distilled water + alcohol) 100 % of control; (dose: 100.0 mg/kg/injection, schedule: Q01DX005 (ip), vehicle: distilled water + alcohol) 98 % of control; (dose: 200.0 mg/kg/injection, schedule: Q01DX005 (ip), vehicle: distilled water + alcohol) 107 % of control.
Take `Cc1cc(NC(=S)SCc2ccc(Cl)cc2)c([N+](=O)[O-])cc1C`: the T/C reads like this: under setting [1], 92 % of control; (dose: 50.0 mg/kg/injection, schedule: Q01DX009 (ip), vehicle: suspension in saline) 108 % of control; (dose: 100.0 mg/kg/injection, schedule: Q01DX009 (ip), vehicle: saline) 97 % of control; (dose: 200.0 mg/kg/injection, schedule: Q01DX009 (ip), vehicle: saline) 92 % of control; (dose: 200.0 mg/kg/injection, schedule: Q01DX009 (ip), vehicle: suspension in saline) 98 % of control.
`O=C(CCl)N1c2ccccc2Sc2ccc(Cl)cc21`: the T/C (dose: 3.13 mg/kg/injection, schedule: Q01DX009 (ip), vehicle: water) was 117 % of control; the T/C (dose: 6.25 mg/kg/injection, schedule: Q01DX009 (ip), vehicle: water) is 117 % of control; the T/C (dose: 12.5 mg/kg/injection, schedule: Q01DX009 (ip), vehicle: water) is 111 % of control.
As to `C=CCOc1cccc(OCC=C)c1C`, the T/C is, setting by setting: (dose: 100.0 mg/kg/injection, schedule: Q04DX003 (ip), vehicle: saline with Tween-80) 113 % of control; (dose: 200.0 mg/kg/injection, schedule: Q04DX003 (ip), vehicle: saline with Tween-80) 100 % of control; (dose: 400.0 mg/kg/injection, schedule: Q04DX003 (ip), vehicle: saline with Tween-80) 104 % of control.
With `CNC1CCCc2c(O)cccc21` (stereo not drawn), the T/C is 99 % of control (dose: 50.0 mg/kg/injection, schedule: Q04DX003 (ip), vehicle: Klucel (hydroxypropylcellulose) (HPC)) and 101 % of control (dose: 100.0 mg/kg/injection, schedule: Q04DX003 (ip), vehicle: Klucel (hydroxypropylcellulose) (HPC)).
In the case of `O=C(O)c1ccccc1-c1c2ccc(=Nc3ccccc3)cc-2oc2cc(Nc3ccc(S(=O)(=O)O)cc3)ccc12`, the T/C is 94 % of control (dose: 50.0 mg/kg/injection, schedule: Q01DX005 (ip), vehicle: saline); 98 % of control (dose: 100.0 mg/kg/injection, schedule: Q01DX005 (ip), vehicle: saline); 111 % of control (dose: 200.0 mg/kg/injection, schedule: Q01DX005 (ip), vehicle: saline).
